# Source: ChEMBL document CHEMBL1135008, “17S,20S-Methanofusidic acid, a new potent semi-synthetic fusidane antibiotic” (2002)
# Assays:
# Format in all cases: functional
# [1] = test system: Enterococcus faecalis; assay: Compound was tested for its antibacterial activity against Enterococcus faecalis ATCC 10541
# [2] = test system: Geobacillus stearothermophilus; assay: Compound was tested for its antibacterial activity against Bacillus stearothermophilus KG 5
# [3] = test system: Bacillus cereus; assay: Compound was tested for its antibacterial activity against Bacillus cereus ATCC 10876
# [4] = test system: Micrococcus luteus; assay: Compound was tested for its antibacterial activity against Micrococcus luteus ATCC 9341
# [5] = test system: Escherichia coli; assay: Compound was tested for its antibacterial activity against Escherichia coli HA 44
# [6] = test system: Pseudomonas aeruginosa; assay: Compound was tested for its antibacterial activity against Pseudomonas aeruginosa ATCC 10145
# [7] = test system: Streptococcus pyogenes; assay: Compound was tested for its antibacterial activity against Streptococcus pyogenes EC
# [8] = test system: Staphylococcus epidermidis; assay: Compound was tested for its antibacterial activity against Staphylococcus epidermidis ATCC 12228
# [9] = test system: Enterococcus faecium; assay: Compound was tested for its antibacterial activity against Enterococcus faecium EI 119, penicillin resistant
# [10] = test system: Lactiplantibacillus plantarum; assay: Compound was tested for its antibacterial activity against Lactobacillus plantarum ATCC 8014
# [11] = test system: Streptococcus sp.; assay: Compound was tested for its antibacterial activity against Streptococcus sp. EG 14
# [12] = test system: Staphylococcus aureus; assay: Compound was tested for its antibacterial activity against Staphylococcus aureus CJ 232 (MRSA)
# [13] = test system: Staphylococcus aureus; assay: Compound was tested for its antibacterial activity against Staphylococcus aureus ATCC 2977
# [14] = test system: Cutibacterium acnes; assay: Compound was tested for its antibacterial activity against Propionibacterium acnes NCTC 737
# [15] = test system: Clostridium perfringens; assay: Compound was tested for its antibacterial activity against Clostridium perfringens KT 13
# [16] = test system: Streptococcus sp.; assay: Compound was tested for its antibacterial activity against Streptococcus sp. EF 6
# [17] = test system: Corynebacterium xerosis; assay: Compound was tested for its antibacterial activity against Corynebacterium xerosis NCTC 9755
# [18] = test system: Staphylococcus epidermidis; assay: Antimicrobial evaluation revealed potent activity against several Gram positive bacteria (Staphylococcus epidermidis ATCC 12228)
Structure (SMILES),MIC [1] [µg/mL],MIC [2] [µg/mL],MIC [3] [µg/mL],MIC [4] [µg/mL],MIC [5] [µg/mL],MIC [6] [µg/mL],MIC [7] [µg/mL],MIC [8] [µg/mL],MIC [9] [µg/mL],MIC [10] [µg/mL],MIC [11] [µg/mL],MIC [12] [µg/mL],MIC [13] [µg/mL],MIC [14] [µg/mL],MIC [15] [µg/mL],MIC [16] [µg/mL],MIC [17] [µg/mL],MIC [18] [µg/mL]
CC(=O)O[C@H]1C[C@@]2(C)C(C[C@@H](O)[C@H]3[C@@]4(C)CC[C@@H](O)[C@@H](C)[C@@H]4CC[C@@]32C)/C1=C(\CCC=C(C)C)C(=O)O (some centres undefined),4,0.03,4,1,> 125,1,4,0.001,0.02,4,16,0.015,0.006,0.02,16,4,0.04,
CC(=O)O[C@H]1C[C@@]2(C)C(C[C@@H](O)[C@H]3[C@@]4(C)CC[C@@H](O)[C@@H](C)C4CC[C@@]32C)[C@]12C[C@]2(CCC=C(C)C)C(=O)O (some centres undefined),16,0.03,1,0.25,> 125,1,16,,0.02,63,63,0.014,0.003,0.02,16,16,0.04,0.001
